Measured values as given in the supplement of paper PMC10627819.

Legend:
B. subtilis 168 [1] = assay: Bliss interaction score (quartile over a dose matrix) (fitness difference); higher = more antagonism (negative = synergy)
In short: (§1)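 Fitness was derived from optical density at entry into stationary phase, divided by the robust mean of the no-drug wells on the same plate. That reading was taken as OD595, and the ratio was capped at 1. Single-drug fitness was inferred from the combination data. The Bliss score, observed fitness minus the expected product of single-drug fitness, was summarised as quartiles over technical, biological and donor/recipient replicates.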

S. aureus Newman [2] = assay: as above
In short: as §1

S. aureus DSM 20231 [3] = assay: as above
In short: as §1

S. pneumoniae D39V [4] = assay: as above
In short: as §1

B. subtilis 168 [5] = assay: fitness (endpoint OD595 vs no drug) (fraction); higher = more growth
In short: (§2)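 Plates with 384 wells were inoculated at OD595 0.01 using 30 µl of TSB, LB Lennox or CY, or 55 µl for S. pneumoniae. Incubation was at 37 °C, with OD595 measured every 30 min for 14 h. Fitness is the stationary-phase transition optical density over the robust mean of no-drug control wells, after first-reading background subtraction; it is capped at 1.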

S. aureus Newman [6] = assay: as above
In short: as §2

S. aureus DSM 20231 [7] = assay: as above
In short: as §2

S. pneumoniae D39V [8] = assay: as above
In short: as §2
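Wherever Bliss interaction score (quartile over a dose matrix) is given: first quartile when negative (synergy) and third quartile when positive (antagonism).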

CC[C@H]1OC(=O)[C@H](C)[C@@H](O[C@H]2C[C@@](C)(OC)[C@@H](O)[C@H](C)O2)[C@H](C)[C@@H](O[C@@H]2O[C@H](C)C[C@H](N(C)C)[C@H]2O)[C@](C)(O)C[C@@H](C)CN(C)[C@H](C)[C@@H](O)[C@]1(C)O [Azithromycin] + CC1=C\[C@@H](O)CC(=O)Cc2nc(co2)C(=O)N2CCC=C2C(=O)O[C@H](C(C)C)[C@H](C)/C=C/C(=O)NC\C=C\1 [Virginiamycin M1]
Settings	Bliss interaction score
B. subtilis 168 [1]	0.0627
S. aureus DSM 20231 [3]	-0.0726
S. aureus Newman [2]	0.0851
S. pneumoniae D39V [4]	0.0642

fitness
Settings	partner 0.0625 µg/mL	partner 0.125 µg/mL	partner 0.25 µg/mL
B. subtilis 168 [5], first compound 0.25 µg/mL	0.911	0.876	0.97
B. subtilis 168 [5], first compound 0.5 µg/mL	0.803	0.814	0.869
S. aureus DSM 20231 [7], first compound 0.125 µg/mL	0.817	0.872	0.894
S. aureus DSM 20231 [7], first compound 0.25 µg/mL	0.77	0.873	0.854
S. aureus DSM 20231 [7], first compound 0.5 µg/mL	0.515	0.362	–
S. aureus Newman [6], first compound 0.125 µg/mL	0.912	0.904	0.912
S. aureus Newman [6], first compound 0.25 µg/mL	0.935	0.913	0.92
S. aureus Newman [6], first compound 0.5 µg/mL	0.744	0.707	0.722

fitness, one replicate
Settings	first compound 0.125 µg/mL	first compound 0.25 µg/mL	first compound 0.5 µg/mL
S. aureus DSM 20231 [7], partner 0.5 µg/mL	0.981	0.86	0.728
S. aureus DSM 20231 [7], partner 1 µg/mL	0.791	0.798	0.505
S. aureus Newman [6], partner 0.5 µg/mL	0.937	0.9	0.859
S. aureus Newman [6], partner 1 µg/mL	≥ 1	≥ 1	0.89
S. aureus Newman [6], partner 2 µg/mL	0.904	0.907	0.764

CC[C@H]1OC(=O)[C@H](C)[C@@H](O[C@H]2C[C@@](C)(OC)[C@@H](O)[C@H](C)O2)[C@H](C)[C@@H](O[C@@H]2O[C@H](C)C[C@H](N(C)C)[C@H]2O)[C@](C)(O)C[C@@H](C)CN(C)[C@H](C)[C@@H](O)[C@]1(C)O [Azithromycin] + CCC[C@@H]1C[C@@H](C(=O)N[C@@H]([C@H]2O[C@H](SC)[C@H](O)[C@@H](O)[C@H]2O)[C@H](C)Cl)N(C)C1 [Clindamycin]
Settings	Bliss interaction score
B. subtilis 168 [1]	0.109
S. aureus DSM 20231 [3]	-0.0395
S. aureus Newman [2]	-0.0621
S. pneumoniae D39V [4]	0.0737

fitness
Settings	first compound 0.125 µg/mL	first compound 0.25 µg/mL	first compound 0.5 µg/mL	first compound 1 µg/mL
B. subtilis 168 [5], partner 0.0625 µg/mL	–	0.632	0.554	–
B. subtilis 168 [5], partner 0.125 µg/mL	–	0.388	0.379	–
B. subtilis 168 [5], partner 0.25 µg/mL	–	0.367	0.299	0.0793
S. aureus DSM 20231 [7], partner 0.0312 µg/mL	–	–	0.142	–
S. aureus DSM 20231 [7], partner 0.0625 µg/mL	–	–	0.0702	–
S. aureus DSM 20231 [7], partner 0.125 µg/mL	0.0728	0.0466	0.0384	–
S. aureus Newman [6], partner 0.0312 µg/mL	0.693	–	0.481	–
S. aureus Newman [6], partner 0.125 µg/mL	–	0.113	0.0923	–

fitness, B. subtilis 168 [5], one replicate
Settings	first compound 0.5 µg/mL	first compound 1 µg/mL	first compound 2 µg/mL
partner 0.0039 µg/mL	0.945	0.922	0.516
partner 0.0078 µg/mL	0.84	0.776	0.186
partner 0.0156 µg/mL	0.776	0.715	0.23

Cc1onc(-c2ccccc2)c1C(=O)N[C@@H]1C(=O)N2[C@@H]1SC(C)(C)[C@@H]2C(=O)O [Oxacillin] + CN[C@H](CC(C)C)C(=O)N[C@H]1C(=O)N[C@@H](CC(N)=O)C(=O)N[C@H]2C(=O)N[C@H]3C(=O)N[C@H](C(=O)N[C@H](C(=O)O)c4cc(O)cc(O)c4-c4cc3ccc4O)[C@H](O)c3ccc(c(Cl)c3)Oc3cc2cc(c3O[C@@H]2O[C@H](CO)[C@@H](O)[C@H](O)[C@H]2O[C@H]2C[C@](C)(N)[C@H](O)[C@H](C)O2)Oc2ccc(cc2Cl)[C@H]1O [Vancomycin]
Settings	Bliss interaction score
B. subtilis 168 [1]	-0.0574
S. aureus DSM 20231 [3]	-0.0751
S. aureus Newman [2]	-0.0696
S. pneumoniae D39V [4]	-0.302

Settings	fitness
S. aureus DSM 20231 [7], first compound 0.0156 µg/mL, partner 0.1875 µg/mL	0.776
S. aureus DSM 20231 [7], first compound 0.0156 µg/mL, partner 0.375 µg/mL	0.867
S. aureus DSM 20231 [7], first compound 0.0156 µg/mL, partner 0.75 µg/mL	0.81
S. aureus DSM 20231 [7], first compound 0.0312 µg/mL, partner 0.1875 µg/mL	0.641
S. aureus DSM 20231 [7], first compound 0.0312 µg/mL, partner 0.375 µg/mL	0.73
S. aureus DSM 20231 [7], first compound 0.0312 µg/mL, partner 0.75 µg/mL	0.679
S. aureus DSM 20231 [7], first compound 0.0625 µg/mL, partner 0.1875 µg/mL	0.519
S. aureus DSM 20231 [7], first compound 0.0625 µg/mL, partner 0.375 µg/mL	0.516
S. aureus DSM 20231 [7], first compound 0.0625 µg/mL, partner 0.75 µg/mL	0.564
S. aureus Newman [6], first compound 0.0156 µg/mL, partner 0.1875 µg/mL	0.785
S. aureus Newman [6], first compound 0.0156 µg/mL, partner 0.375 µg/mL	0.756
S. aureus Newman [6], first compound 0.0312 µg/mL, partner 0.1875 µg/mL	0.715
S. aureus Newman [6], first compound 0.0312 µg/mL, partner 0.375 µg/mL	0.724
S. aureus Newman [6], first compound 0.0312 µg/mL, partner 0.75 µg/mL	0.712
S. aureus Newman [6], first compound 0.0625 µg/mL, partner 0.1875 µg/mL	0.652
S. aureus Newman [6], first compound 0.0625 µg/mL, partner 0.375 µg/mL	0.637
S. pneumoniae D39V [8], first compound 0.01 µg/mL, partner 0.03125 µg/mL	0.988
S. pneumoniae D39V [8], first compound 0.01 µg/mL, partner 0.0625 µg/mL	0.906
S. pneumoniae D39V [8], first compound 0.01 µg/mL, partner 0.25 µg/mL	0.243
S. pneumoniae D39V [8], first compound 0.01 µg/mL, partner 0.5 µg/mL	0.0401
S. pneumoniae D39V [8], first compound 0.02 µg/mL, partner 0.03125 µg/mL	0.859
S. pneumoniae D39V [8], first compound 0.02 µg/mL, partner 0.0625 µg/mL	0.734
S. pneumoniae D39V [8], first compound 0.02 µg/mL, partner 0.25 µg/mL	0.149
S. pneumoniae D39V [8], first compound 0.02 µg/mL, partner 0.5 µg/mL	0.0421
S. pneumoniae D39V [8], first compound 0.04 µg/mL, partner 0.03125 µg/mL	0.271
S. pneumoniae D39V [8], first compound 0.04 µg/mL, partner 0.0625 µg/mL	0.18
S. pneumoniae D39V [8], first compound 0.04 µg/mL, partner 0.125 µg/mL	0.108
S. pneumoniae D39V [8], first compound 0.04 µg/mL, partner 0.25 µg/mL	0.101
S. pneumoniae D39V [8], first compound 0.04 µg/mL, partner 0.5 µg/mL	0.056
